Where two headings read alike, the source gives them in different places.
Key:
Assay type in all cases: in vivo
[1] = test system: Erysiphe cichoracearum on cucumbers; assay: Greenhouse trial, 4 day residual, Erysiphe cichoracearum on cucumbers; conditions: Golovinomyces cichoracearum, 96 h, read-out: Observed Efficacy; for pest or weed control at 0.4 ppm: dose rate 0.4 ppm; for pest or weed control at 2 ppm: dose rate 2 ppm; for pest or weed control at 10 ppm: dose rate 10 ppm; for pest or weed control at 50 ppm: dose rate 50 ppm
Outline: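 Cucumber plants were sprayed to near run-off with compounds or mixtures (5% acetone/0.05% Tween 20 aqueous). Four days later they were inoculated by dusting with Erysiphe cichoracearum conidia. Percent diseased leaf area was assessed about 7 days after inoculation, and efficacy and Colby synergy were calculated from it.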

[2] = test system: Puccinia recondita on wheat; assay: Greenhouse trial, 4 day residual, Puccinia recondita on wheat; conditions: Puccinia recondita, 96 h, read-out: Observed Efficacy; for pest or weed control at 4 ppm: dose rate 4 ppm; for pest or weed control at 16 ppm: dose rate 16 ppm; for pest or weed control at 64 ppm: dose rate 64 ppm; for pest or weed control at 256 ppm: dose rate 256 ppm; for pest or weed control at 0.4 ppm: dose rate 0.4 ppm; for pest or weed control at 2 ppm: dose rate 2 ppm; for pest or weed control at 10 ppm: dose rate 10 ppm; for pest or weed control at 50 ppm: dose rate 50 ppm
Outline: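 Wheat plants sprayed at primary-leaf stage with compounds, alone or in mixtures, in 5% acetone/0.05% Tween 20 water, then inoculated 4 days later with Puccinia recondita spore suspension and held 1-2 days in a moist chamber. Percent diseased leaf area scored about 7 days post-inoculation, excluding leaf tips and bases; efficacy calculated, synergy by Colby.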

[3] = test system: Leptosphaeria nodorum on wheat; assay: Greenhouse trial, 4 day residual, Leptosphaeria nodorum on wheat; conditions: Parastagonospora nodorum, 96 h, compound alone, read-out: Observed Efficacy; for pest or weed control at 4 ppm: dose rate 4 ppm; for pest or weed control at 16 ppm: dose rate 16 ppm; for pest or weed control at 64 ppm: dose rate 64 ppm; for pest or weed control at 256 ppm: dose rate 256 ppm
Outline: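 Wheat at full primary-leaf expansion sprayed with aqueous formulated compounds or mixtures (technical material in 5% acetone/0.05% Tween 20) to near run-off or at 200 l/ha, inoculated 4 days later with spore suspension and held 1-2 days in a moist chamber. Percent diseased leaf area scored about 7 days post-inoculation, excluding leaf tips and bases; synergy judged by Colby formula.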

[4] = test system: Pyrenophora teres on barley; assay: Greenhouse trial, 4 day residual, Pyrenophora teres on barley; conditions: Pyrenophora teres, 96 h, 4 day residual, read-out: Observed Efficacy; for pest or weed control at 0.4 ppm: dose rate 0.4 ppm; for pest or weed control at 2 ppm: dose rate 2 ppm; for pest or weed control at 10 ppm: dose rate 10 ppm; for pest or weed control at 50 ppm: dose rate 50 ppm
[5] = test system: Blumeria graminis f. sp. tritici on wheat; assay: Greenhouse trial, 2 day curative, Blumeria graminis f. sp. tritici on wheat; conditions: Table XVII, compound alone
Experimental: (§1) The trials are carried out under greenhouse (Examples 1 to 18) or field conditions (Example 19) in residual or curative applications. The fungicides are applied in single treatments, or in a combination comprising a benzophenone of formula I and a compound selected from (A) through (E) as defined above. The compounds are applied in form of an aqueous spray mix obtained from a concentrated formulation or the technical material.
(§2) 1. Seed is planted in 6 cm diameter plastic pots and maintained in the greenhouse.
(§3) 2. When the primary leaf is fully expanded (in the case of cereals) or several leaves are present (in the case of dicots), formulated test compounds are sprayed with a three nozzle overhead fungicide sprayer to near run-off. Alternatively, a single nozzle overhead track sprayer is used for application of the compounds to cereals at a rate of 200 liters/ha (l/ha). Plants are then allowed to air-dry.
(§4) 3. Inoculation precedes treatment in the case of curative evaluations and follows treatment in case of residual evaluations. For inoculation of powdery mildew disease, plants are set up on greenhouse benches with bottom watering mats and inoculated by dusting them with conidia from infected plants. Between inoculation and treatment for curative evaluations and between treatment and inoculation for residual evaluations, plants are maintained in the greenhouse with bottom watering. For inoculation of non-powdery mildew diseases, an aqueous spore suspension of the pathogen is applied to the plant and the plants are kept 1-2 days in a moist infection chamber before being returned to the greenhouse where they are maintained by bottom watering.
(§5) 4. Disease on the foliage as percent leaf area with disease symptoms/signs is evaluated about 7 days after inoculation. In the case of wheat, the tips and bases of the leaves are excluded from the evaluation. [formula]
(§6) 1. Technical compounds are formulated in a solvent/surfactant system consisting of 5% acetone and 0.05% Tween 20 in deionized water. Compounds are dissolved in acetone prior to addition of the water; the Tween 20 can be added through either the acetone or the water. Dilutions are made using the solvent/surfactant system. Formulated compounds are prepared using deionized water.
(§7) Assessments of the diseases took place at the indicated day after the application of the compounds. Per cent infected leaf area infected was evaluated. The efficacy of the compounds/compounds mixtures to control the diseases was calculated by using the formula given above under item 4: […]
(§8) Synergy of a fungicide mixture was determined by comparing the actual (observed) fungicidal activity of the mixture to the expected fungicidal activity of the mixture as calculated using the COLBY formula given hereinabove.
Fungicidal Efficacy of the Mixture of Different Benzophenones+Metconazole (2 Day Curative) Against Blumeria graminis f. sp. tritici on Wheat
The tank mixes were obtained from technical material of the benzophenones BP-2 and BP-4 and metconazole.

[6] = test system: Uncinula necator on vines; assay: Greenhouse trial, 1 day residual, Uncinula necator on vines; conditions: Table XVIII, compound alone
Experimental: as §1, §2, §3, §4, §5, §6, §7, §8
Fungicidal Efficacy of the Mixture of BP-4+AP-4 (1 Day Residual) Against Uncinula necator on Vines
The tank mixes were obtained from technical material of BP-4 and AP-4. The active ingredients, the type of formulations, the observed and expected efficacies with different rates are given in Table XVIII: […]

[7] = Table XIV (Example 14), 4 day residual
[8] = Table XV (Example 15), 4 day residual

COc1cc(C)c(C(=O)c2c(OC)ccc(Br)c2C)c(OC)c1OC [BP-4, 5-bromo-2′,6-dimethyl-2,4′,5′,6′-tetramethoxybenzophenone] gave a pest or weed control at 1 ppm ([1]; Table VI, compound alone, dose rate 1 ppm) of 1%, a pest or weed control at 4 ppm ([1]; Table VI, compound alone, dose rate 4 ppm) of 6% and a pest or weed control at 16 ppm ([1]; Table VI, compound alone, dose rate 16 ppm) of 51%. For the same molecule, the pest or weed control at 64 ppm ([1]; Table VI, compound alone, dose rate 64 ppm) was 100%, the pest or weed control at 0.4 ppm ([1]; Table XI, compound alone) was 0% and the pest or weed control at 2 ppm ([1]; Table XI, compound alone) was 2%. For the same molecule, the pest or weed control at 10 ppm ([1]; Table XI, compound alone) was 55%, the pest or weed control at 50 ppm ([1]; Table XI, compound alone) was 96% and the pest or weed control at 0.4 ppm [1, 7] was 0%. For the same molecule, the pest or weed control at 2 ppm [1, 7] was 0%, the pest or weed control at 10 ppm [1, 7] was 13% and the pest or weed control at 50 ppm [1, 7] was 97%. The pest or weed control at 4 ppm ([2]; Table IX, compound alone) was 6%, the pest or weed control at 16 ppm ([2]; Table IX, compound alone) was 4% and the pest or weed control at 64 ppm ([2]; Table IX, compound alone) was 16%. It also gave a pest or weed control at 256 ppm ([2]; Table IX, compound alone) of 38%, a pest or weed control at 4 ppm ([2]; Table VII, compound alone) of 0% and a pest or weed control at 16 ppm ([2]; Table VII, compound alone) of 0%. For the same molecule, the pest or weed control at 64 ppm ([2]; Table VII, compound alone) was 0%, the pest or weed control at 256 ppm ([2]; Table VII, compound alone) was 13% and the pest or weed control at 0.4 ppm ([2]; Table XII, compound alone) was 2%. The pest or weed control at 2 ppm ([2]; Table XII, compound alone) was 7%, the pest or weed control at 10 ppm ([2]; Table XII, compound alone) was 10% and the pest or weed control at 50 ppm ([2]; Table XII, compound alone) was 31%. It also gave a pest or weed control at 0.4 ppm [2, 8] of 0%, a pest or weed control at 2 ppm [2, 8] of 0% and a pest or weed control at 10 ppm [2, 8] of 6%. The pest or weed control at 50 ppm [2, 8] was 12%, the pest or weed control at 4 ppm ([3]; Table VIII) was 0% and the pest or weed control at 16 ppm ([3]; Table VIII) was 0%. It also gave a pest or weed control at 64 ppm ([3]; Table VIII) of 14%, a pest or weed control at 256 ppm ([3]; Table VIII) of 34% and a pest or weed control at 4 ppm ([3]; Table X) of 0%. It also gave a pest or weed control at 16 ppm ([3]; Table X) of 10%, a pest or weed control at 64 ppm ([3]; Table X) of 18% and a pest or weed control at 256 ppm ([3]; Table X) of 44%. It also gave a pest or weed control at 0.4 ppm ([4]; Table XIII (Example 13)) of 0%, a pest or weed control at 2 ppm ([4]; Table XIII (Example 13)) of 0% and a pest or weed control at 10 ppm ([4]; Table XIII (Example 13)) of 34%. The pest or weed control at 50 ppm ([4]; Table XIII (Example 13)) was 58%, the pest or weed control at 0.4 ppm ([4]; Table XVI (Example 16)) was 0% and the pest or weed control at 2 ppm ([4]; Table XVI (Example 16)) was 0%. The pest or weed control at 10 ppm ([4]; Table XVI (Example 16)) was 0%, the pest or weed control at 50 ppm ([4]; Table XVI (Example 16)) was 11% and the “Observed Efficacy” value ([5]; dose rate 0.67 ppm) was 9%. The “Observed Efficacy” value ([5]; dose rate 2 ppm) was 27%, the “Observed Efficacy” value ([5]; dose rate 6 ppm) was 42% and the “Observed Efficacy” value ([5]; dose rate 18 ppm) was 78%. The “Observed Efficacy” value ([5]; dose rate 54 ppm) was 92%, the “Observed Efficacy” value ([6]; dose rate 0.25 ppm) was 0% and the “Observed Efficacy” value ([6]; dose rate 0.5 ppm) was 21%. For the same molecule, the “Observed Efficacy” value ([6]; dose rate 1 ppm) was 28%, the “Observed Efficacy” value ([6]; dose rate 2 ppm) was 9% and the “Observed Efficacy” value ([6]; dose rate 4 ppm) was 43%. For the same molecule, the “Observed Efficacy” value ([6]; dose rate 8 ppm) was 42%.
